Laboratory results published in article PMC4154066 (Chemical research in toxicology, 2013).
Where two headings read alike, the source gives them in different places.

Experiments:
HepG2 cells [1] = test: Oxygen consumption rate; assay type: cell-based, Human; conditions: for Relative percentage OCR 30 Sec: HepG2, 30 sec after compound at its MMP IC50; for Relative percentage OCR 30 Sec / Relative percentage OCR 1 h: basal OCR = 100%, mean ± SD; for Relative percentage OCR 1 h: HepG2, 1 h after compound at its MMP IC50
HepG2 cells [2] = test: cells; assay type: cell-based, Human; conditions: for Compound potency (IC50) LDH Release 5 h: HepG2, 5 h treatment
[3] = HepG2, compound at its MMP IC50, 30 sec and 1 h, then FCCP
[4] = HepG2, 1 h treatment, mean ± SD, 3 independent experiments
[5] = mean ± SD, 3 independent experiments
[6] = Homo sapiens, HepG2, 1 h, read-out: Compound potency (IC50) LDH Release 1 h
[7] = Homo sapiens, HepG2, 5 h, read-out: Compound potency (IC50) LDH Release 5 h
[8] = read-out: Compound potency (IC50) LDH Release 1 h, HepG2, 1 h treatment, mean ± SD, 3 independent experiments

Row | Structure (SMILES) | Relative percentage OCR 30 Sec (HepG2 cells [1]) [%] | Relative percentage OCR 1 h (HepG2 cells [1]) [%] | further results
1 | CC/C(=C(/CC)c1ccc(O)cc1)c1ccc(O)cc1 [Diethylstilbestrol [DES], Diethylstilbestrol, reference compound] |  |  | Effect on OCR / FCCP-uncoupled OCR (in words) (HepG2 cells [1]): depressed both basal and FCCP uncoupled rates
2 | CCCCCCCCCc1ccc(O)cc1 [p -n -Nonylphenol] | 116.61 ± 6.28 | 131.32 ± 0.61 | 
3 | O=C(Nc1ccccc1)Nc1ccccc1 [Diphenylurea] | 97.02 ± 4.18 | 143.97 ± 1.85 | 
4 | CN(C)c1ccc(N=NS(=O)(=O)O)cc1 [Formulated fenaminosulf (Dexon), fenaminosulf] | 102.48 ± 0.9 | 110.45 ± 0.28 | 
5 | Clc1ccc(C(c2ccccc2Cl)C(Cl)Cl)cc1 (centres unmarked) [o,p'-DDD (Mitotane), 1,1-dichloro-2-(o-chlorophenyl)-2-(p-chlorophenyl) ethane, reference compound] | 102.84 ± 1.36 | 114.22 ± 0.42 | 
6 | COc1cc(/C=C/C(=O)CC(=O)/C=C/c2ccc(O)c(OC)c2)ccc1O [Curcumin] | 86 ± 3.54 | 94.85 ± 0.67 | Effect on OCR / FCCP-uncoupled OCR (in words) (HepG2 cells [1]; [3]): significantly suppressed the FCCP uncoupled rates
7 | Cc1cc(O)c(C(C)(C)C)cc1Sc1cc(C(C)(C)C)c(O)cc1C [4,4-Thiobis(6-t-butyl-m-cresol)] | 106.32 ± 4 | 127.15 ± 1.52 | Compound potency (IC50) LDH Release 1 h (HepG2 cells [2]; [4]): Inactive; Compound potency (IC50) LDH Release 5 h (HepG2 cells [2]; [5]): Inconclusive
8 | Oc1c(Cl)cc(Cl)c(Cl)c1Cc1c(O)c(Cl)cc(Cl)c1Cl [Hexachlorophene] | 201.72 ± 51.19 | 175.25 ± 1.35 | 
9 | Oc1cc(Cl)c(Cl)c(Cl)c1 [3,4,5-Trichlorophenol] | 163.21 ± 18.34 | 173.49 ± 1.32 | 
10 | Nc1ccc2c(c1)C(=O)c1ccccc1C2=O [2-Aminoanthraquinone] | 97.54 ± 0.63 | 106.44 ± 0.61 | 
11 | Oc1ccc(Cl)cc1Cc1cc(Cl)ccc1O [2,2'-Methylenebis-(4-chlorophenol)] | 170.42 ± 33.35 | 168.27 ± 1.85 | 
12 | Nc1cccc2c(N)cccc12 [1,5-Naphthalenediamine] | 104.68 ± 1.3 | 115.87 ± 0.7 | 
13 | O=C1C2(Cl)C3(Cl)C4(Cl)C(Cl)(Cl)C5(Cl)C3(Cl)C1(Cl)C5(Cl)C24Cl (centres unmarked) [Kepone] | 139.53 ± 5.8 | 140.71 ± 0.96 | IC50 (HepG2 cells [2]; [6]): 49.1 ± 12.3 µM; IC50 (HepG2 cells [2]; [7]): 58.4 ± 3.95 µM
14 | O=c1c(O)c(-c2ccc(O)cc2)oc2cc(O)cc(O)c12 [Kaempferol] | 118.63 ± 4.29 | 138.85 ± 1.28 | Compound potency (IC50) LDH Release 1 h (HepG2 cells [2]; [4]): Inactive; Compound potency (IC50) LDH Release 5 h (HepG2 cells [2]; [5]): Inconclusive; Effect on OCR / FCCP-uncoupled OCR (in words) (HepG2 cells [1]; [3]): acted as an uncoupler
15 | O=C=Nc1ccc(Cl)c(Cl)c1 [3,4-Dichlorophenyl isocyanate] | 102.45 ± 10.76 | 236.03 ± 4.84 | 
16 | CC(C)(c1ccccc1)c1ccc(O)cc1 [4-Cumylphenol] | 111.24 ± 4.51 | 121.31 ± 0.33 | 

Row | Structure (SMILES) | Relative percentage OCR 30 Sec (HepG2 cells [1]) [%] | Relative percentage OCR 1 h (HepG2 cells [1]) [%] | further results
17 | Oc1ccc(Cl)cc1Cc1ccccc1 [o-Benzyl-p-chlorophenol] | 123.51 ± 12.67 | 126.12 ± 0.47 | 
18 | Cc1cc2nc3c(=O)[nH]c(=O)nc-3n(C[C@H](O)[C@H](O)[C@H](O)CO)c2cc1C [Riboflavin] | 103.69 ± 0.37 | 115.15 ± 0.4 | 
19 | c1ccc(Nc2ccc3ccccc3c2)cc1 [N-Phenyl-2-naphthylamine] | 103.45 ± 2.35 | 120.42 ± 0.94 | 
20 | C[C@H]1CCCC(=O)CCC/C=C/c2cc(O)cc(O)c2C(=O)O1 [Zearalenone] | 77.68 ± 2.39 | 109.62 ± 0.57 | Effect on OCR / FCCP-uncoupled OCR (in words) (HepG2 cells [1]; [3]): depressed both basal and FCCP uncoupled rates
21 | C[C@@H]1CC[C@@]2(OC1)O[C@H]1[C@@H](O)[C@H]3[C@@H]4CC[C@H]5C[C@@H](O[C@@H]6O[C@H](CO)[C@H](O[C@@H]7O[C@H](CO)[C@@H](O)[C@H](O[C@@H]8OC[C@@H](O)[C@H](O)[C@H]8O)[C@H]7O[C@@H]7O[C@H](CO)[C@H](O)[C@H](O[C@@H]8O[C@H](CO)[C@@H](O)[C@H](O)[C@H]8O)[C@H]7O)[C@H](O)[C@H]6O)[C@H](O)C[C@]5(C)[C@H]4CC[C@]3(C)[C@H]1[C@@H]2C [Digitonin] | 57.25 ± 6.4 | 54.89 ± 0.48 | IC50 (HepG2 cells [2]; [6]): 45.1 ± 8.43 µM; IC50 (HepG2 cells [2]; [7]): 45.1 ± 8.43 µM; Effect on OCR / FCCP-uncoupled OCR (in words) (HepG2 cells [1]; [3]): depressed both basal and FCCP uncoupled rates
22 | CC(=O)Oc1ccccc1C(=O)Nc1ncc([N+](=O)[O-])s1 [Nitazoxanide, reference compound] | 277.15 ± 15.64 | 199.34 ± 2.37 | 
23 | Nc1ccc(O)cc1 [p-Aminophenol] | 100.52 ± 5.81 | 158.18 ± 3.31 | 
24 | O=c1c(-c2ccc(O)cc2)coc2cc(O)cc(O)c12 [Genistein (4',5,7-Trihydroxyisoflavone), 4',5,7-Trihydroxyisoflavone] | 90.18 ± 3.05 | 105.21 ± 0.19 | 
25 | COC(=O)Nc1cccc(OC(=O)Nc2cccc(C)c2)c1 [Phenmedipham] | 105.47 ± 2.71 | 130.87 ± 1.18 | Compound potency (IC50) LDH Release 1 h (HepG2 cells [2]; [4]): Inactive; Potency for cytotoxicity (LDH) compared with MMP decrease, 5 h (HepG2 cells [2]; HepG2, 5 h): more potent for cytotoxicity than for MMP disruption; Compound potency (IC50) LDH Release 5 h (HepG2 cells [2]; [5]): Inconclusive
26 | O=C1C2CC=CCC2C(=O)N1SC(Cl)(Cl)Cl (centres unmarked) [Captan] | 110.37 ± 7.97 | 128.41 ± 0.77 | 
27 | Oc1ccc(/C=C/c2cc(O)cc(O)c2)cc1 [Resveratrol] | 100.5 ± 0.73 | 110.92 ± 0.36 | 
28 | Oc1ccc(Cl)cc1Sc1cc(Cl)ccc1O [2,2'-Thiobis(4-chlorophenol)] | 273.19 ± 70.36 | 191.27 ± 0.92 | 
29 | CC1=C(/C=C/C(C)=C/C=C/C(C)=C/C(=O)Nc2ccc(O)cc2)C(C)(C)CCC1 [4-Hydroxyphenyl retinamide] | 96.31 ± 1.42 | 98.83 ± 0.42 | Effect on OCR / FCCP-uncoupled OCR (in words) (HepG2 cells [1]; [3]): significantly suppressed the FCCP uncoupled rates
30 | CC(=O)[O][Hg][c]1ccccc1 [Phenyl mercuric acetate] | 67.6 ± 5.55 | 51.54 ± 0.26 | IC50 (HepG2 cells [2]; [8]): 68.1 ± 4.44 µM; Effect on OCR / FCCP-uncoupled OCR (in words) (HepG2 cells [1]; [3]): depressed both basal and FCCP uncoupled rates
31 | CCCCCCCC[N+](CCCCCCCC)(CCCCCCCC)CCCCCCCC.[Br-] [tetra-N-Octylammonium bromide] | 122.56 ± 40.61 | 215.53 ± 1.14 | IC50 (HepG2 cells [2]; [8]): 35.4 ± 12.6 µM
